Where two headings read alike, the source gives them in different places.
Tests used:
[1] = biological target: T1, HCV NS5B (Hepatitis C virus genotype 1b, UniProt Q9WMX2); assay: HCV NS5B RdRp enzyme assay (standard / modified); assay type: biochemical
T1 construct: The protein was expressed with an 18 amino acid C-terminal truncation to enhance the solubility; made in house; host or cells: E. coli BL21 (DE3)
Method: HCV NS5B RdRp cloning, expression, and purification. The cDNA encoding the NS5B protein of HCV, genotype 1b, was cloned into the pET21a expression vector. The protein was expressed with an 18 amino acid C-terminal truncation to enhance the solubility. The E. coli competent cell line BL21 (DE3) was used for expression of the protein. Cultures were grown at 37° C. for ˜4 hours until the cultures reached an optical density of 2.0 at 600 nm. The cultures were cooled to 20° C. and induced with 1 mM IPTG. Fresh ampicillin was added to a final concentration of 50 μg/ml and the cells were grown overnight at 20° C.
Cell pellets (3 L) were lysed for purification to yield 15-24 mgs of purified NS5B. The lysis buffer consisted of 20 mM Tris-HCl, pH 7.4, 500 mM NaCl, 0.5% triton X-100, 1 mM DTT, 1 mM EDTA, 20% glycerol, 0.5 mg/ml lysozyme, 10 mM MgCl2, 15 ug/ml deoxyribonuclease I, and Complete TM protease inhibitor tablets (Roche). After addition of the lysis buffer, frozen cell pellets were resuspended using a tissue homogenizer. To reduce the viscosity of the sample, aliquots of the lysate were sonicated on ice using a microtip attached to a Branson sonicator. The sonicated lysate was centrifuged at 100,000×g for 1 hr at 4° C. and filtered through a 0.2 μm filter unit (Corning).
The protein was purified using three sequential chromatography steps: Heparin sepharose CL-6B, polyU sepharose 4B, and Hitrap SP sepharose (Pharmacia). The chromatography buffers were identical to the lysis buffer but contained no lysozyme, deoxyribonuclease I, MgCl2 or protease inhibitor and the NaCl concentration of the buffer was adjusted according to the requirements for charging the protein onto the column. Each column was eluted with a NaCl gradient which varied in length from 5-50 column volumes depending on the column type. After the final chromatography step, the resulting purity of the enzyme is >90% based on SDS-PAGE analysis. The enzyme was aliquoted and stored at −80° C.
Standard HCV NS5B RdRp enzyme assay. HCV RdRp genotype 1b assays were run in a final volume of 60 μl in 96 well plates (Costar 3912). The assay buffer is composed of 20 mM Hepes, pH 7.5, 2.5 mM KCl, 2.5 mM MgCl2, 1 mM DTT, 1.6 U RNAse inhibitor (Promega N2515), 0.1 mg/ml BSA (Promega R3961), and 2% glycerol. All compounds were serially diluted (3-fold) in DMSO and diluted further in water such that the final concentration of DMSO in the assay was 2%. HCV RdRp genotype 1b enzyme was used at a final concentration of 28 nM. A polyA template was used at 6 nM, and a biotinylated oligo-dT12 primer was used at 180 nM final concentration. Template was obtained commercially (Amersham 27-4110). Biotinylated primer was prepared by Sigma Genosys. 3H-UTP was used at 0.6 μCi (0.29 μM total UTP). Reactions were initiated by the addition of enzyme, incubated at 30° C. for 60 min, and stopped by adding 25 μl of 50 mM EDTA containing SPA beads (4 μg/μl, Amersham RPNQ 0007). Plates were read on a Packard Top Count NXT after >1 hr incubation at room temperature.
Modified HCV NS5B RdRp enzyme assay. A modified enzyme assay was performed essentially as described for the standard enzyme assay except for the following: The biotinylated oligo dT12 primer was precaptured on streptavidin-coated SPA beads by mixing primer and beads in assay buffer and incubating at room temperature for one hour. Unbound primer was removed after centrifugation. The primer-bound beads were resuspended in 20 mM Hepes buffer, pH 7.5 and used in the assay at final concentrations of 20 nM primer and 0.67 μg/μl beads. Order of addition in the assay: enzyme (14 nM) was added to diluted compound followed by the addition of a mixture of template (0.2 nM), 3H-UTP (0.6 μCi, 0.29 μM), and primer-bound beads, to initiate the reaction; concentrations given are final. Reactions were allowed to proceed for 4 hours at 30° C.
IC50 values for compounds were determined using seven different [I]. […]

[2] = tested on: HCV replicon cells; assay: HCV replicon FRET / luciferase assay; assay type: cell-based; settings: Hepatitis C virus
Excerpt: FRET Assay Preparation. To perform the HCV FRET screening assay, 96-well cell culture plates were used. The FRET peptide (Anaspec, Inc.) (Taliani et al., Anal. Biochem. 1996, 240, 60-67) contains a fluorescence donor, EDANS, near one end of the peptide and an acceptor, DABCYL, near the other end. The fluorescence of the peptide is quenched by […] resonance energy transfer (RET) between the donor and the acceptor, but as the NS3 protease cleaves the peptide the products are released from RET quenching and the fluorescence of the donor becomes apparent. The assay reagent was made as follows: 5× cell Luciferase cell culture lysis reagent from Promega (#E153A) diluted to 1× with dH2O, NaCl added to 150 mM final, the FRET peptide diluted to 20 μM final from a 2 mM stock.
To prepare plates, HCV replicon cells, with or without a Renilla luciferase reporter gene, were trypsinized and placed into each well of a 96-well plate with titrated test compounds added in columns 3 through 12; columns 1 and 2 contained a control compound (HCV protease inhibitor), and the bottom row contained cells without compound. The plates were then placed in a CO2 incubator at 37° C.
Assays. Subsequent to addition of the test compounds described above (FRET Assay Preparation), at various times the plate was removed and Alamar blue solution (Trek Diagnostics, #00-100) was added per well as a measure of cellular toxicity. After reading in a Cytoflour 4000 instrument (PE Biosystems), plates were rinsed with PBS and then used for FRET assay by the addition of 30 ul of the FRET peptide assay reagent described above (FRET Assay Preparation) per well. The plate was then placed into the Cytoflour 4000 instrument which had been set to 340 excite/490 emission, automatic mode for 20 cycles and the plate read in a kinetic mode. Typically, the signal to noise using an endpoint analysis after the reads was at least three-fold. Alternatively, after Alamar blue reading, plates were rinsed with PBS, 50 ul of DMEM (high glucose) without phenol red was added and plates were then used for luciferase assay using the Promega Dual-Glo Luciferase Assay System.
Compound analysis was determined by quantification of the relative HCV replicon inhibition and the relative cytotoxicity values. To calculate cytoxicity values, the average Alamar Blue fluorescence signals from the control wells were set as 100% non-toxic. The individual signals in each of the compound test wells were then divided by the average control signal and multiplied by 100% to determine […]. To calculate the HCV replicon inhibition values, an average background value was obtained from the two wells containing the highest amount of HCV protease inhibitor at the end of the assay period. These numbers were similar to those obtained from naïve Huh-7 cells.
The background numbers were then subtracted from the average signal obtained from the control wells and this number was used as 100% activity. The individual signals in each of the compound test wells were then divided by the averaged control values after background subtraction and multiplied by 100% to determine percent activity. EC50 values for a protease inhibitor titration were calculated as the concentration which caused a 50% reduction in FRET or luciferase activity. The two numbers generated for the compound plate, percent cytoxicity and percent activity were used to determine compounds of interest for further analysis.

[3] = HCV RdRp genotype 1b enzyme, read-out: IC50
[4] = HCV replicon cells, FRET or luciferase readout, read-out: EC50

T1 sequence (Q9WMX2 2420-2992): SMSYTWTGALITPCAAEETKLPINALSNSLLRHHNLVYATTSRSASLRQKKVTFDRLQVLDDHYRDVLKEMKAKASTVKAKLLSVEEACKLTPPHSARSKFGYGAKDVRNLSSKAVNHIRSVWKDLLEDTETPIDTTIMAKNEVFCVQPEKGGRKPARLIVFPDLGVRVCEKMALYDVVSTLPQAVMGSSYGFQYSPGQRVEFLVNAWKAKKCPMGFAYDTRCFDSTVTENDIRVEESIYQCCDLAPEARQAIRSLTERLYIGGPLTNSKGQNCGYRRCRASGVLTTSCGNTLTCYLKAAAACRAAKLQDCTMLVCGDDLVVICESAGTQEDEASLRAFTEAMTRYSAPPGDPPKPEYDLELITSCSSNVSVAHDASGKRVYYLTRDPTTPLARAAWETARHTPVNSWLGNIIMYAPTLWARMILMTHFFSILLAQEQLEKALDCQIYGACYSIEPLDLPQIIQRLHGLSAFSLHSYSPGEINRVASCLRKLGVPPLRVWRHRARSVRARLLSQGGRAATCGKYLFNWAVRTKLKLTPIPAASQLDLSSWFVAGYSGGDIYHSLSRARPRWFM

Structure (SMILES) | IC50 [1] [nM] | EC50 [2] [nM] | IC50 [1, 3] [nM] | EC50 [2, 4] [nM]
CCn1ncc(C(=O)N2C3CCCC2COC3)c1C1=Cc2cc(OC)ccc2-c2c(C3CCCCC3)c3ccc(C(=O)NS(=O)(=O)C(C)C)cc3n2C1 | 1 to 500 | 1 to 500 |  | 
COc1ccc2c(c1)C=C(c1c(C(=O)N3C4COCC3COC4)cnn1C)Cn1c-2c(C2CCCCC2)c2ccc(C(=O)NS(=O)(=O)CC(C)C)cc21 | 1 to 500 | 1 to 500 |  | 
CCN1C[C@@H]2C[C@H]1CN2C(=O)c1cnn(C)c1C1=Cc2cc(OC)ccc2-c2c(C3CCCCC3)c3ccc(C(=O)NS(=O)(=O)C(C)C)cc3n2C1 |  |  | 1 to 500 | 1 to 500
COC[C@@H]1CN(C(=O)c2cnn(CC(F)(F)F)c2C2=Cc3cc(OC)ccc3-c3c(C4CCCCC4)c4ccc(C(=O)NS(=O)(=O)C(C)C)cc4n3C2)CCO1 |  |  | 1 to 500 | 1 to 500
COc1ccc2c(c1)C=C(c1c(C(=O)N3C4COCC3COC4)cnn1C)Cn1c-2c(C2CCCCC2)c2ccc(C(=O)NS(=O)(=O)C(C)C)cc21 | 1 to 500 | 1 to 500 |  | 
COc1ccc2c(c1)C=C(c1c(C(=O)N3CCCC(N(C)C)C3)cnn1C)Cn1c-2c(C2CCCCC2)c2ccc(C(=O)NS(=O)(=O)C(C)C)cc21 (stereo not shown) |  |  | 1 to 500 | 1 to 500
COc1ccc2c(c1)C=C(c1c(C(=O)N3CCC(N4CCCC4)CC3)cnn1C)Cn1c-2c(C2CCCCC2)c2ccc(C(=O)NS(=O)(=O)C(C)C)cc21 |  |  | 1 to 500 | 1 to 500
CCn1ncc(C(=O)N2CCO[C@@H](COC)C2)c1C1=Cc2cc(OC)ccc2-c2c(C3CCCCC3)c3ccc(C(=O)NS(=O)(=O)C(C)C)cc3n2C1 |  |  | 1 to 500 | 1 to 500
CCN1C[C@@H]2C[C@H]1CN2C(=O)c1cnn(C)c1C1=Cc2cc(OC)ccc2-c2c(C3CCCCC3)c3ccc(C(=O)NS(=O)(=O)C4CCC4)cc3n2C1 |  |  | 1 to 500 | 1 to 500
COc1ccc2c(c1)C=C(c1c(C(=O)N3C4CCC3COC4)cnn1CC(F)(F)F)Cn1c-2c(C2CCCCC2)c2ccc(C(=O)NS(=O)(=O)C(C)C)cc21 | 1 to 500 | 1 to 500 |  | 
COc1ccc2c(c1)C=C(c1ccsc1C(=O)N1CCOCC1)Cn1c-2c(C2CCCCC2)c2ccc(C(=O)NS(=O)(=O)N(C)C)cc21 |  |  | 1 to 500 | 1 to 500
COc1ccc2c(c1)C=C(c1c(C(=O)N3C[C@@H](C)O[C@@H](C)C3)c(C)nn1C)Cn1c-2c(C2CCCCC2)c2ccc(C(=O)NS(=O)(=O)C(C)C)cc21 |  |  | 1 to 500 | 1 to 500
CCn1nc(C)c(C(=O)OC)c1C1=Cc2cc(OC)ccc2-c2c(C3CCCCC3)c3ccc(C(=O)O)cc3n2C1 |  |  | > 500 | > 500
COc1ccc2c(c1)C=C(c1sccc1C(=O)N1C3CCC1CN(C)C3)Cn1c-2c(C2CCCCC2)c2ccc(C(=O)NS(=O)(=O)C(C)C)cc21 | 1 to 500 | 1 to 500 |  | 
COc1ccc2c(c1)C=C(c1c(C(=O)N3CCOCC3)cnn1C)Cn1c-2c(C2CCCCC2)c2ccc(C(=O)NS(=O)(=O)C3CCC3)cc21 |  |  | 1 to 500 | 1 to 500
CCOC(=O)c1cc[nH]c1C1=Cc2cc(OC)ccc2-c2c(C3CCCCC3)c3ccc(C(=O)NS(=O)(=O)C(C)C)cc3n2C1 |  |  | 1 to 500 | 1 to 500
COc1ccc2c(c1)C=C(c1c(C(=O)N3CCN4CCC3CC4)cnn1C)Cn1c-2c(C2CCCCC2)c2ccc(C(=O)NS(=O)(=O)N3CCOCC3)cc21 |  |  | 1 to 500 | 1 to 500
COc1ccc2c(c1)C=C(c1c(C(=O)N3CCOCC3)cnn1C(C)C)Cn1c-2c(C2CCCCC2)c2ccc(C(=O)O)cc21 |  |  | 1 to 500 | 1 to 500
COc1ccc2c(c1)C=C(c1c(C(=O)N3C4CCC3CC4)cnn1C)Cn1c-2c(C2CCCCC2)c2ccc(C(=O)NS(=O)(=O)C(C)C)cc21 |  | 1 to 500 |  | 
COc1ccc2c(c1)C=C(c1c(C(=O)N3C4CCCC3COC4)cnn1C(C)C)Cn1c-2c(C2CCCCC2)c2ccc(C(=O)NS(=O)(=O)C(C)C)cc21 |  | 1 to 500 |  | 
COc1ccc2c(c1)C=C(c1c(C(=O)N3C4CCC3CN(C)C4)c(C)nn1C(C)C)Cn1c-2c(C2CCCCC2)c2ccc(C(=O)NS(=O)(=O)C(C)C)cc21 |  | 1 to 500 |  | 
CCn1ncc(C(=O)N2CC3CCC(C2)N3C)c1C1=Cc2cc(OC)ccc2-c2c(C3CCCCC3)c3ccc(C(=O)NS(=O)(=O)C(C)C)cc3n2C1 |  | 1 to 500 |  | 
CCn1ncc(C(=O)N2C3CCC2CN(C)C3)c1C1=Cc2cc(OC)ccc2-c2c(C3CCCCC3)c3ccc(C(=O)NS(=O)(=O)C(C)C)cc3n2C1 |  | 1 to 500 |  | 
CCn1nc(C)c(C(=O)N2C3CCCC2COC3)c1C1=Cc2cc(OC)ccc2-c2c(C3CCCCC3)c3ccc(C(=O)NS(=O)(=O)C(C)C)cc3n2C1 |  | 1 to 500 |  | 
COc1ccc2c(c1)C=C(c1c(C(=O)N3C4CCC3CN(C)C4)nnn1C(C)C)Cn1c-2c(C2CCCCC2)c2ccc(C(=O)NS(=O)(=O)N(C)C)cc21 |  | 1 to 500 |  | 
COc1ccc2c(c1)C=C(c1c(C(=O)N3C4COCC3COC4)cnn1CC(F)(F)F)Cn1c-2c(C2CCCCC2)c2ccc(C(=O)NS(=O)(=O)C(C)C)cc21 |  | 1 to 500 |  | 
COc1ccc2c(c1)C=C(c1c(C(=O)N3C4CCC3CN(C)C4)ncn1C(C)C)Cn1c-2c(C2CCCCC2)c2ccc(C(=O)NS(=O)(=O)C(C)C)cc21 |  | 1 to 500 |  | 
CCn1nc(C)c(C(=O)N2C3CCC2CN(C)C3)c1C1=Cc2cc(OC)ccc2-c2c(C3CCCCC3)c3ccc(C(=O)NS(=O)(=O)C(C)C)cc3n2C1 |  | 1 to 500 |  | 
